The experiment concerns MCF7 cells. Put plainly: Anti-proliferation (viability) of MCF7 cells (Table 7, FIG. 2B). The experiment is classed as cell-based. Particulars: Homo sapiens, MCF7, MCF7 cells, 3-6 days, 10-point serial dilution; read-out: GI IC50 in MCF-7.
A word on the IC50: it is the concentration at which inhibition is half-maximal. Take `CC(=O)c1c(C)c2cnc(Nc3ccc(N4CCN(C(C)CC(=O)N5CCC(Nc6nc(NC(C)C)ccc6C(=O)Nc6cn(C)c(C7CC7)n6)CC5)CC4)cn3)nc2n(C2CCCC2)c1=O` (centres unmarked) [CPD-431, 2-((1-(3-(4-(6-((6-acetyl-8-cyclopentyl-5-methyl-7-oxo-7,8-dihydropyrido[2,3-d]pyrimidin-2-yl)amino)pyridin-3-yl)piperazin-1-yl)butanoyl)piperidin-4-yl)amino)-N-(2-cyclopropyl-1-methyl-1H-imidazol-4-yl)-6-(isopropylamino)nicotinamide]: the IC50 is 50 to 100 nM.
With `CC(=O)c1c(C)c2cnc(Nc3ccc(N4CCC(N5CC(C(=O)N6CC7(CC(Nc8nc(NC(C)C)ccc8C(=O)Nc8ccc(N(C)C)nn8)C7)C6)C5)CC4)cn3)nc2n(C2CCCC2)c1=O` [CPD-391, 2-((2-(1-(1-(6-((6-acetyl-8-cyclopentyl-5-methyl-7-oxo-7,8-dihydropyrido[2,3-d]pyrimidin-2-yl)amino)pyridin-3-yl)piperidin-4-yl)azetidine-3-carbonyl)-2-azaspiro[3.3]heptan-6-yl)amino)-N-(6-(dimethylamino)pyridazin-3-yl)-6-(isopropylamino)nicotinamide], the IC50 is > 100 nM.
The same measure for `CC(=O)c1c(C)c2cnc(Nc3ccc(N4CCN(CC(=O)NC5CC6(C5)CC(Nc5nc(CC(C)C)ccc5C(=O)Nc5cn(C)c(C7CC7)n5)C6)CC4)cn3)nc2n(C2CCCC2)c1=O` (centres unmarked) [CPD-318, 2-((6-(2-(4-(6-((6-acetyl-8-cyclopentyl-5-methyl-7-oxo-7,8-dihydropyrido[2,3-d]pyrimidin-2-yl)amino)pyridin-3-yl)piperazin-1-yl)acetamido)spiro[3.3]heptan-2-yl)amino)-N-(2-cyclopropyl-1-methyl-1H-imidazol-4-yl)-6-isobutylnicotinamide]: > 100 nM; for `CC(=O)c1c(C)c2cnc(Nc3ccc(N4CCC(N(C)CC(=O)N5CCC(Nc6nc(NC(C)C)ccc6C(=O)Nc6ccc(N(C)C)nn6)C5)CC4)cn3)nc2n(C2CCCC2)c1=O` (centres unmarked) [CPD-426, 2-((1-(N-(1-(6-((6-acetyl-8-cyclopentyl-5-methyl-7-oxo-7,8-dihydropyrido[2,3-d]pyrimidin-2-yl)amino)pyridin-3-yl)piperidin-4-yl)-N-methylglycyl)pyrrolidin-3-yl)amino)-N-(6-(dimethylamino)pyridazin-3-yl)-6-(isopropylamino)nicotinamide]: < 50 nM; for `CNc1ccc(C(=O)Nc2cn(C)c(C3CC3)n2)c(NC2CC3(C2)CN(C(=O)C2CC4(CCN(c5ccc(Nc6ncc7c(C)c(C(C)=O)c(=O)n(C8CCCC8)c7n6)nc5)CC4)C2)C3)n1` (centres unmarked) [CPD-321, 2-((2-(7-(6-((6-acetyl-8-cyclopentyl-5-methyl-7-oxo-7,8-dihydropyrido[2,3-d]pyrimidin-2-yl)amino)pyridin-3-yl)-7-azaspiro[3.5]nonane-2-carbonyl)-2-azaspiro[3.3]heptan-6-yl)amino)-N-(2-cyclopropyl-1-methyl-1H-imidazol-4-yl)-6-(methylamino)nicotinamide]: > 100 nM.
On to `CC(=O)c1c(C)c2cnc(Nc3ccc(N4CCC5(CC4)CC5C(=O)N4CC5(CC(Nc6nc(NC(C)C)ccc6C(=O)Nc6cn(C)c(C7CC7)n6)C5)C4)cn3)nc2n(C2CCCC2)c1=O` (centres unmarked) [CPD-412, 2-((2-(6-(6-((6-acetyl-8-cyclopentyl-5-methyl-7-oxo-7,8-dihydropyrido[2,3-d]pyrimidin-2-yl)amino)pyridin-3-yl)-6-azaspiro[2.5]octane-1-carbonyl)-2-azaspiro[3.3]heptan-6-yl)amino)-N-(2-cyclopropyl-1-methyl-1H-imidazol-4-yl)-6-(isopropylamino)nicotinamide], for which the concentration for half-maximal inhibition (IC50) was > 100 nM.
The figure for `[2H]C([2H])([2H])Nc1ccc(C(=O)Nc2cn(C)c(C3CC3)n2)c(NC2CC3(C2)CN(C(=O)CN2CCC4(CCN(c5ccc(Nc6ncc7c(C)c(C(C)=O)c(=O)n(C8CCCC8)c7n6)nc5)C4)C2)C3)n1` (centres unmarked) [CPD-443, 2-((2-(2-(7-(6-((6-acetyl-8-cyclopentyl-5-methyl-7-oxo-7,8-dihydropyrido[2,3-d]pyrimidin-2-yl)amino)pyridin-3-yl)-2,7-diazaspiro[4.4]nonan-2-yl)acetyl)-2-azaspiro[3.3]heptan-6-yl)amino)-N-(2-cyclopropyl-1-methyl-1H-imidazol-4-yl)-6-((methyl-d3)amino)nicotinamide] is < 50 nM; for `CC(=O)c1c(C)c2cnc(Nc3ccc(CN4CCC(CC(=O)N5CCC(Nc6nc(NC(C)C)ccc6C(=O)Nc6ccc(N(C)C)nn6)CC5)CC4)cn3)nc2n(C2CCCC2)c1=O` [CPD-392, 2-((1-(2-(1-((6-((6-acetyl-8-cyclopentyl-5-methyl-7-oxo-7,8-dihydropyrido[2,3-d]pyrimidin-2-yl)amino)pyridin-3-yl)methyl)piperidin-4-yl)acetyl)piperidin-4-yl)amino)-N-(6-(dimethylamino)pyridazin-3-yl)-6-(isopropylamino)nicotinamide] it is > 100 nM.
Consider `[2H]C([2H])([2H])Nc1ccc(C(=O)Nc2ccc(N(C)C)nn2)c(NC2CC3(C2)CC(C(=O)N2CCC4(CCN(c5ccc(Nc6ncc7c(C)c(C(C)=O)c(=O)n(C8CCCC8)c7n6)nc5)C4)C2)C3)n1` (centres unmarked) [CPD-379, 2-((6-(7-(6-((6-acetyl-8-cyclopentyl-5-methyl-7-oxo-7,8-dihydropyrido[2,3-d]pyrimidin-2-yl)amino)pyridin-3-yl)-2,7-diazaspiro[4.4]nonane-2-carbonyl)spiro[3.3]heptan-2-yl)amino)-N-(6-(dimethylamino)pyridazin-3-yl)-6-((methyl-d3)amino)nicotinamide], for which the concentration for half-maximal inhibition (IC50) was > 100 nM.
Take `[2H]C([2H])([2H])Nc1ccc(C(=O)Nc2cc(C)on2)c(NC2CC(C(C)NC(=O)CN3CCN(c4ccc(Nc5ncc6c(C)c(C(C)=O)c(=O)n(C7CCCC7)c6n5)nc4)CC3)C2)n1` (centres unmarked) [CPD-361, 2-((3-(1-(2-(4-(6-((6-acetyl-8-cyclopentyl-5-methyl-7-oxo-7,8-dihydropyrido[2,3-d]pyrimidin-2-yl)amino)pyridin-3-yl)piperazin-1-yl)acetamido)ethyl)cyclobutyl)amino)-6-((methyl-d3)amino)-N-(5-methylisoxazol-3-yl)nicotinamide]: the 50% inhibitory concentration (IC50) was > 100 nM.
The same measure for `CNc1ccc(C(=O)Nc2ccc(N(C)C)nn2)c(NC2CCN(C(=O)C3CC4(CCN(c5ccc(Nc6ncc7c(C)c(C(C)=O)c(=O)n(C8CCCC8)c7n6)nc5)CC4)C3)CC2)n1` [CPD-329, 2-((1-(7-(6-((6-acetyl-8-cyclopentyl-5-methyl-7-oxo-7,8-dihydropyrido[2,3-d]pyrimidin-2-yl)amino)pyridin-3-yl)-7-azaspiro[3.5]nonane-2-carbonyl)piperidin-4-yl)amino)-N-(6-(dimethylamino)pyridazin-3-yl)-6-(methylamino)nicotinamide]: > 100 nM.
`CC(=O)c1c(C)c2cnc(Nc3ccc(N4CCN(CC(=O)NCC5CC(Nc6cc(C(F)(F)F)ccc6C(=O)Nc6cc(C)n(C)n6)C5)CC4)cn3)nc2n(C2CCCC2)c1=O` (centres unmarked) [CPD-261, 2-((3-((2-(4-(6-((6-acetyl-8-cyclopentyl-5-methyl-7-oxo-7,8-dihydropyrido[2,3-d]pyrimidin-2-yl)amino)pyridin-3-yl)piperazin-1-yl)acetamido)methyl)cyclobutyl)amino)-N-(1,5-dimethyl-1H-pyrazol-3-yl)-4-(trifluoromethyl)benzamide]: the IC50 is > 100 nM.
The figure for `CC(=O)c1c(C)c2cnc(Nc3ccc(N4CCN(CCC(=O)N5CCC(Nc6nc(NC(C)C)ccc6C(=O)Nc6cn(C)c(C7CC7)n6)CC5)CC4)cn3)nc2n(C2CCCC2)c1=O` [CPD-313, 2-((1-(3-(4-(6-((6-acetyl-8-cyclopentyl-5-methyl-7-oxo-7,8-dihydropyrido[2,3-d]pyrimidin-2-yl)amino)pyridin-3-yl)piperazin-1-yl)propanoyl)piperidin-4-yl)amino)-N-(2-cyclopropyl-1-methyl-1H-imidazol-4-yl)-6-(isopropylamino)nicotinamide] is > 100 nM.
Consider `CNc1ccc(C(=O)Nc2ccc(N(C)C)nn2)c(NC2CCC(C(=O)N3CC4(CCN(c5ccc(Nc6ncc7c(C)c(C(C)=O)c(=O)n(C8CCCC8)c7n6)nc5)CC4)C3)CC2)n1` (centres unmarked) [CPD-351, 2-((4-(7-(6-((6-acetyl-8-cyclopentyl-5-methyl-7-oxo-7,8-dihydropyrido[2,3-d]pyrimidin-2-yl)amino)pyridin-3-yl)-2,7-diazaspiro[3.5]nonane-2-carbonyl)cyclohexyl)amino)-N-(6-(dimethylamino)pyridazin-3-yl)-6-(methylamino)nicotinamide], for which the half-maximal inhibitory concentration (IC50) is > 100 nM.
The figure for `CC(=O)c1c(C)c2cnc(Nc3ccc(N4CCN(CC(=O)NCC5CC(Nc6cc(F)ccc6C(=O)Nc6cc(C)n(C)n6)C5)CC4)cn3)nc2n(C2CCCC2)c1=O` (centres unmarked) [CPD-264, 2-((3-((2-(4-(6-((6-acetyl-8-cyclopentyl-5-methyl-7-oxo-7,8-dihydropyrido[2,3-d]pyrimidin-2-yl)amino)pyridin-3-yl)piperazin-1-yl)acetamido)methyl)cyclobutyl)amino)-N-(1,5-dimethyl-1H-pyrazol-3-yl)-4-fluorobenzamide] is > 100 nM.
Turning to `CC(=O)c1c(C)c2cnc(Nc3ccc(N4CCN(C5CCN(C(=O)[C@H]6CC[C@@H](Nc7nc(NC(C)C)ccc7C(=O)Nc7ccc(N(C)C)nn7)C6)C5)CC4)cn3)nc2n(C2CCCC2)c1=O` (stereo partly drawn) [CPD-403, 2-(((1R,3S)-3-(3-(4-(6-((6-acetyl-8-cyclopentyl-5-methyl-7-oxo-7,8-dihydropyrido[2,3-d]pyrimidin-2-yl)amino)pyridin-3-yl)piperazin-1-yl)pyrrolidine-1-carbonyl)cyclopentyl)amino)-N-(6-(dimethylamino)pyridazin-3-yl)-6-(isopropylamino)nicotinamide], the IC50 lay within 50 to 100 nM.
As to `CNc1ccc(C(=O)Nc2ccc(N(C)C)nn2)c(NC2CC(N3CCC(CN4CCN(c5ccc(Nc6ncc7c(C)c(C(C)=O)c(=O)n(C8CCCC8)c7n6)nc5)CC4)C3)C2)n1` (centres unmarked) [CPD-319, 2-((3-(3-((4-(6-((6-acetyl-8-cyclopentyl-5-methyl-7-oxo-7,8-dihydropyrido[2,3-d]pyrimidin-2-yl)amino)pyridin-3-yl)piperazin-1-yl)methyl)pyrrolidin-1-yl)cyclobutyl)amino)-N-(6-(dimethylamino)pyridazin-3-yl)-6-(methylamino)nicotinamide], the half-inhibitory concentration (IC50) is > 100 nM.
